Reference: patent publication US20200102264A1, “MARMELIN ANALOGS AND METHODS OF USE IN CANCER TREATMENT” (THE UNIVERSITY OF KANSAS, priority 2014, published 2020)
pIC50: −log10 of the molar value.

Tests used:
Type in all cases: cell-based
SW480 colon cancer cells = assay: hexoseaminidase cell proliferation assay, SW480
From the text: (§1) Using hexoseaminidase assay, we determined the effect of the compounds on cell proliferation. […]
(§2) Using hexoseaminidase assay, we determined the effect of the compounds on cell proliferation. […] […] […] Overall, the analogs can be used as chemotherapeutic agents against colon and pancreatic cancer.

[1] = tested on: PanC-1 pancreatic cancer cells; assay: hexoseaminidase cell proliferation assay, PanC-1
Method: (§3) Using hexoseaminidase assay, we determined the effect of the compounds on cell proliferation. […] The IC50 value at 48 hours is below 10 μM in all the cancer cell lines.
(§4) Using hexoseaminidase assay, we determined the effect of the compounds on cell proliferation. […] The MRL16 IC50 value at 48 hours is below 0.3 μM in Colon cancer cell lines. […] Overall, the analogs can be used as chemotherapeutic agents against colon and pancreatic cancer.

[2] = tested on: MiaPaCa-2 pancreatic cancer cells; assay: hexoseaminidase cell proliferation assay, MiaPaCa-2
Method: as §3, §4

[3] = tested on: HCT116 colon cancer cells; assay: hexoseaminidase cell proliferation assay, HCT116
From the text: as §1, §2

SW480 cells = assay: cell cycle analysis, SW480; conditions: SW480, Table 3
Method: The analogs were tested to determine the ability induce death of colon cancer cells.

HCT116 cells = assay: cell cycle analysis, HCT116; conditions: HCT116, Table 3
[4] = tested on: colon, pancreatic and bladder cancer cells; assay: hexoseaminidase cell proliferation assay, summaries over cell lines; conditions: dose and time dependent
Method: Water solubility studies were performed with the CD/analog complexes. […] The observed IC50 value of THBCD at 48 h is below 10 μM in all the colon, pancreatic and bladder cancer cells.
as §3, §4

[5] = Homo sapiens, MIA PaCa-2, MiaPaCa-2, 24 h
[6] = Homo sapiens, MIA PaCa-2, MiaPaCa-2, 48 h
[7] = Homo sapiens, MIA PaCa-2, MiaPaCa-2, 72 h
[8] = Homo sapiens, HCT-116, HCT116, 24 h
[9] = Homo sapiens, HCT-116, HCT116, 48 h
[10] = Homo sapiens, HCT-116, HCT116, 72 h

pIC50 (SW480 colon cancer cells; SW480, 48 h) | pIC50 (SW480 colon cancer cells; SW480, 72 h) | pIC50 ([1]; PanC-1, 24 h) | pIC50 ([1]; PanC-1, 72 h) | pIC50 ([2]; MiaPaCa-2, 24 h) | pIC50 ([2]; MiaPaCa-2, 48 h) | pIC50 ([2]; MiaPaCa-2, 72 h) | pIC50 ([3]; HCT116, 48 h) | pIC50 ([3]; HCT116, 72 h) | pIC50 (SW480 colon cancer cells; Homo sapiens, SW480, 24 h) | pIC50 (SW480 colon cancer cells; Homo sapiens, SW480, 48 h) | pIC50 (SW480 colon cancer cells; Homo sapiens, SW480, 72 h) | pIC50 ([1]; Homo sapiens, PANC-1, 24 h) | pIC50 ([1]; Homo sapiens, PANC-1, 48 h) | pIC50 ([1]; Homo sapiens, PANC-1, 72 h) | pIC50 [2, 5] | pIC50 [2, 6] | pIC50 [2, 7] | pIC50 [3, 8] | pIC50 [3, 9] | SMILES | other results
4.40 | 4.46 | < 4.30 | 4.40 | < 4.30 | 4.40 | 4.46 | 4.46 | 4.46 | – | – | – | – | – | – | – | – | – | – | – | O=C(N/N=C/c1cc(F)cc(F)c1)c1cc2ccccc2cc1O [MRL RFB] | pIC50 ([1]; PanC-1, 48 h): 4.40
– | – | – | – | – | – | – | – | – | < 5.00 | < 5.00 | < 5.00 | < 5.00 | < 5.00 | < 5.00 | < 5.00 | < 5.00 | < 5.00 | < 5.00 | < 5.00 | CC(=O)c1ccc2ccccc2c1O [MRL15] | pIC50 [3, 10]: < 5.00
< 4.30 | < 4.30 | < 4.30 | < 4.30 | < 4.30 | < 4.30 | < 4.30 | < 4.30 | < 4.30 | – | – | – | – | – | – | – | – | – | – | – | NNC(=O)c1cc2ccccc2cc1O [MRL BDM] | pIC50 (SW480 colon cancer cells; SW480, 24 h): < 4.30; pIC50 ([1]; PanC-1, 48 h): < 4.30; pIC50 ([3]; HCT116, 24 h): < 4.30
< 4.30 | < 4.30 | < 4.30 | < 4.30 | < 4.30 | < 4.30 | < 4.30 | < 4.30 | < 4.30 | – | – | – | – | – | – | – | – | – | – | – | O=C(N/N=C/c1ccc(F)c(F)c1F)c1cc2ccccc2cc1O [MRL TFB] | pIC50 (SW480 colon cancer cells; SW480, 24 h): < 4.30; pIC50 ([1]; PanC-1, 48 h): < 4.30; pIC50 ([3]; HCT116, 24 h): < 4.30
– | – | – | – | – | – | – | – | – | < 4.30 | < 4.30 | < 4.30 | < 4.30 | < 4.30 | < 4.30 | < 4.30 | < 4.30 | < 4.30 | < 4.30 | < 4.30 | OC[C@H]1O[C@@H]2O[C@H]3[C@H](O)[C@@H](O)[C@@H](O[C@H]4[C@H](O)[C@@H](O)[C@@H](O[C@H]5[C@H](O)[C@@H](O)[C@@H](O[C@H]6[C@H](O)[C@@H](O)[C@@H](O[C@H]7[C@H](O)[C@@H](O)[C@@H](O[C@H]8[C@H](O)[C@@H](O)[C@@H](O[C@H]1[C@H](O)[C@H]2O)O[C@@H]8CO)O[C@@H]7CO)O[C@@H]6CO)O[C@@H]5CO)O[C@@H]4CO)O[C@@H]3CO [CD, β-cyclodextrin] | G0/G1 (%) (SW480 cells): 61.1%; G2M (%) (SW480 cells): 19.8%; S (%) (SW480 cells): 14.9%; SubG0 Dead Cells (%) (SW480 cells): 3.6%; G0/G1 (%) (HCT116 cells): 43.9%; G2M (%) (HCT116 cells): 10.9%; S (%) (HCT116 cells): 12.3%; SubG0 Dead Cells (%) (HCT116 cells): 31.0%; pIC50 [3, 10]: < 4.30
– | – | – | – | – | – | – | – | – | < 5.00 | < 5.00 | 5.30 | < 5.00 | 5.00 | 5.40 | < 5.00 | < 5.00 | < 5.00 | < 5.00 | 5.30 | C/C(=N\NC(=O)c1ccccc1)c1ccc2ccccc2c1O [MRL19] | inhibition of cell proliferation (in words) [4]: potent inhibitor; pIC50 [3, 10]: 5.64
< 4.30 | < 4.30 | < 4.30 | < 4.30 | < 4.30 | < 4.30 | < 4.30 | < 4.30 | < 4.30 | – | – | – | – | – | – | – | – | – | – | – | O=C(N/N=C/c1ccc(F)cc1)c1cc2ccccc2cc1O [MRL MFB] | pIC50 (SW480 colon cancer cells; SW480, 24 h): < 4.30; pIC50 ([1]; PanC-1, 48 h): < 4.30; pIC50 ([3]; HCT116, 24 h): < 4.30
– | – | – | – | – | – | – | – | – | < 4.30 | < 4.30 | < 4.30 | < 4.30 | < 4.30 | < 4.30 | < 4.30 | < 4.30 | 4.60 | < 4.30 | < 4.30 | O=C(N/N=C/c1ccc2ccccc2n1)c1cc2ccccc2cc1O [QNL] | pIC50 [3, 10]: 4.70
< 4.30 | < 4.30 | < 4.30 | < 4.30 | < 4.30 | < 4.30 | < 4.30 | < 4.30 | < 4.30 | – | – | – | – | – | – | – | – | – | – | – | O=C(N/N=C/c1ccc(O)cc1)c1cc2ccccc2cc1O [MRL MHB] | pIC50 (SW480 colon cancer cells; SW480, 24 h): < 4.30; pIC50 ([1]; PanC-1, 48 h): < 4.30; pIC50 ([3]; HCT116, 24 h): < 4.30
5.92 | 6.00 | < 5.00 | 6.00 | < 5.00 | 5.05 | 5.10 | 6.30 | 6.40 | – | – | – | – | – | – | – | – | – | – | – | C/C(=N\NC(=O)c1cc2ccccc2cc1O)c1ccc2ccccc2c1O [MRL20] | pIC50 (SW480 colon cancer cells; SW480, 24 h): < 5.70; pIC50 ([1]; PanC-1, 48 h): 5.30; inhibition of cell proliferation (in words) [4]: potent inhibitor; pIC50 ([3]; HCT116, 24 h): < 5.70
– | – | – | – | – | – | – | – | – | < 5.00 | 5.00 | 5.40 | < 5.00 | 5.30 | 5.40 | < 5.00 | < 5.00 | 5.30 | < 5.00 | 5.46 | C/C(=N\NC(=O)c1ccc(O)cc1)c1ccc2ccccc2c1O [MRL24] | inhibition of cell proliferation (in words) [4]: potent inhibitor; pIC50 [3, 10]: 5.70
< 4.30 | < 4.30 | < 4.30 | < 4.30 | < 4.30 | < 4.30 | < 4.30 | < 4.30 | < 4.30 | – | – | – | – | – | – | – | – | – | – | – | O=C(N/N=C/c1coc2ccccc2c1=O)c1cc2ccccc2cc1O [CMR] | pIC50 (SW480 colon cancer cells; SW480, 24 h): < 4.30; pIC50 ([1]; PanC-1, 48 h): < 4.30; pIC50 ([3]; HCT116, 24 h): < 4.30
– | – | – | – | – | – | – | – | – | < 4.30 | < 4.30 | < 4.30 | < 4.30 | < 4.30 | < 4.30 | < 4.30 | < 4.30 | < 4.30 | < 4.30 | < 4.30 | C/C(=N\NC(=O)c1cc2ccccc2cc1O)c1cc2ccccc2oc1=O [COU] | pIC50 [3, 10]: < 4.30
– | – | – | – | – | – | – | – | – | < 5.00 | < 5.00 | < 5.00 | < 5.00 | < 5.00 | < 5.00 | < 5.00 | 5.30 | 5.40 | < 5.00 | < 5.00 | C/C(=N\NC(N)=S)c1ccc2ccccc2c1O [MRL23] | inhibition of cell proliferation (in words) [4]: potent inhibitor; pIC50 [3, 10]: < 5.00
4.70 | 4.74 | < 4.30 | 4.70 | < 4.30 | 4.60 | 4.77 | 4.60 | 4.66 | – | – | – | – | – | – | – | – | – | – | – | O=C(N/N=C/c1ccc(F)c(F)c1)c1cc2ccccc2cc1O [MRL DFB] | pIC50 (SW480 colon cancer cells; SW480, 24 h): < 4.30; pIC50 ([3]; HCT116, 24 h): < 4.30
– | – | – | – | – | – | – | – | – | < 5.00 | 5.30 | 5.52 | < 5.00 | 5.40 | 5.70 | < 5.00 | < 5.00 | 5.00 | < 5.00 | 5.52 | C/C(=N\NC(=O)c1ccccc1O)c1ccc2ccccc2c1O [MRL18] | inhibition of cell proliferation (in words) [4]: potent inhibitor; pIC50 [3, 10]: 6.00
– | – | – | – | – | – | – | – | – | < 5.00 | < 5.00 | < 5.00 | < 5.00 | < 5.00 | < 5.00 | < 5.00 | < 5.00 | < 5.00 | < 5.00 | < 5.00 | C/C(=N\NC(=O)Cc1cc2ccccc2[nH]1)c1ccc2ccccc2c1O [MRL22] | pIC50 [3, 10]: < 5.00
5.30 | 5.52 | < 5.00 | 5.52 | < 5.00 | 5.30 | 5.30 | 5.42 | 5.52 | – | – | – | – | – | – | – | – | – | – | – | C/C(=N\NC(=O)c1ccco1)c1ccc2ccccc2c1O [MRL21] | pIC50 (SW480 colon cancer cells; SW480, 24 h): < 5.00; pIC50 ([1]; PanC-1, 48 h): 5.30; inhibition of cell proliferation (in words) [4]: potent inhibitor; pIC50 ([3]; HCT116, 24 h): 5.00
